Measured values as given in patent publication US11059815B2, “Synthesis of small molecule histone deacetylase 6 degraders, compounds formed thereby, and pharmaceutical compositions containing them” (Wisconsin Alumni Research Foundation, priority 2018, dated 2021).

Target: T1, HDAC6 (Homo sapiens, UniProt Q9UBN7)
T1 construct: endogenous in cells; host or cells: MM1S (ATCC CRL-2974)
T1 sequence (Q9UBN7 1-1215): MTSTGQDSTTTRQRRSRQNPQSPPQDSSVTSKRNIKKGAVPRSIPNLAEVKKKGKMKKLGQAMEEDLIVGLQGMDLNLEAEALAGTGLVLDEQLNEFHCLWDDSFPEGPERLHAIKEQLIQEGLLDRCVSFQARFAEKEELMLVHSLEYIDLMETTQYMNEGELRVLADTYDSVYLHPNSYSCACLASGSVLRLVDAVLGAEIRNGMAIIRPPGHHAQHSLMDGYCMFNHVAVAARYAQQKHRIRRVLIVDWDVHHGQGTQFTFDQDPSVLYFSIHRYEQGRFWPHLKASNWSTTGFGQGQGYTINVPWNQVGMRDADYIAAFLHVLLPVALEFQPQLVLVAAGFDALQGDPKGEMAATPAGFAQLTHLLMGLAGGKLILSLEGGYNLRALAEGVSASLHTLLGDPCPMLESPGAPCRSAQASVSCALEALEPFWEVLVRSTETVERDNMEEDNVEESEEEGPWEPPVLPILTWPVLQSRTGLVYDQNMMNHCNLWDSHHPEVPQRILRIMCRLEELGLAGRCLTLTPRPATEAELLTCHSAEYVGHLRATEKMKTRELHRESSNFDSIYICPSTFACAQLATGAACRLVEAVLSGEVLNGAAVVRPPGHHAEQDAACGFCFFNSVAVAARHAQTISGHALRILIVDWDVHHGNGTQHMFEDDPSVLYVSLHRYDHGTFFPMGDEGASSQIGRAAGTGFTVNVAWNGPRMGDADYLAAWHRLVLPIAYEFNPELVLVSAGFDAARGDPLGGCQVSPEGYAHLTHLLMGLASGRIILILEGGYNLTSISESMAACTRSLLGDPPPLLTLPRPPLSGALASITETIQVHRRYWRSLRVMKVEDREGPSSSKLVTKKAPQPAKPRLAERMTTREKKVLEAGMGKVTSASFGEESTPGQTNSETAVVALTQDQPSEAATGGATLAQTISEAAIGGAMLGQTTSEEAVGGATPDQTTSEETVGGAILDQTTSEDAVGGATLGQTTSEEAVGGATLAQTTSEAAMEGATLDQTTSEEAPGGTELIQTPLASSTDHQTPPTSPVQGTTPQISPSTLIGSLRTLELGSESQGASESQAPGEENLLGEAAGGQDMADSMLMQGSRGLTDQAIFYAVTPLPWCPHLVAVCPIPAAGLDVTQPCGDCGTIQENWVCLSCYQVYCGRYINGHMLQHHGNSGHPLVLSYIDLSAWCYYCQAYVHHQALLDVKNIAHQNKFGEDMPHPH
Assay: Immunoblot of HDAC6 degradation in MM.1S cells (second generation degraders)
Format: cell-based
Settings: 6 nM
Method: FIG. 6A: Immunoblot showing degradation activity of 18x, 18a, and 18b against HDAC1, HDAC2, HDAC4, and HDAC6 (with β-actin as a control) at serial dilutions of 10 μM, 1 μM, and 100 nM.
FIG. 6B: Immunoblot showing degradation activity of 20a, 20b, 20c, 18c, 18a, and 18b against HDAC4 and HDAC6 (with α-tubulin as a control) at dilutions of 5 nM and 1 nM.
FIG. 6C: Immunoblot showing degradation activity of 18b and 9C against HDAC1, HDAC2, HDAC4, HDAC6, and HDAC8 (with β-actin as a control) at dilutions of 6, 19, 56, 167, and 500 nM.
Some of these HDAC6 degraders could degrade HDAC6 selectively at low nM concentrations in MM.
When the cells reached 90% confluence, they were harvested and plated 1×10^6 cells per well in 6-well plate. After overnight seeding, the cells were treated with a solution of compounds or vehicle in culture medium. The culture medium was removed after treatment and then washed twice with cold PBS. […] Protein concentration was measured by using the Pierce BCA protein assay (Thermo Fisher Scientific). […] The Immunoblot was generated by ChemiDoc MP Imaging Systems (Bio-Rad) and analyzed by Image J software (only available for download online at https://imagej.net/Downloads). […]

HDAC6 depletion: completely depleted
SMILES: CCCCN(Cc1ccc(C(=O)NO)cc1)C(=O)Nc1ccc(OCCCn2cc(CNc3ccc4c(c3)C(=O)N(C3CCC(=O)NC3=O)C4=O)nn2)cc1 (stereo not shown) [Compound 12m, 4-((1-butyl-3-(4-(3-(4-(((2-(2,6-dioxopiperidin-3-yl)-1,3-dioxoisoindolin-5-yl)amino)methyl)-1H-1,2,3-triazol-1-yl)propoxy)phenyl)ureido)methyl)-N-hydroxybenzamide]
